Experimental data as given in DBAASP.
In brackets after ≈: the same amount, converted by molar mass. Several values for one entry are separate records, joined by “and”; a condition that tells them apart may be missing. Equal entries are not always repeated.

Columns and labels:
Experiment in all cases: ≥ marks a high value that may be exact or a test limit, other limits are often not marked, values filed in µg/mL are converted to µM
[1] = tested on: Escherichia coli ATCC 25922
Escherichia coli = tested on: Escherichia coli
[2] = tested on: Staphylococcus aureus ATCC 29213
[3] = tested on: Enterococcus faecalis ATCC 29212
[4] = tested on: Pseudomonas aeruginosa ATCC 27853
[5] = tested on: Staphylococcus epidermidis ATCC 12228
Bacillus subtilis = tested on: Bacillus subtilis
Staphylococcus aureus = tested on: Staphylococcus aureus
Pseudomonas aeruginosa = tested on: Pseudomonas aeruginosa
[6] = tested on: Candida albicans ATCC 90028
[7] = tested on: Salmonella enterica subsp. enterica serovar Typhimurium ATCC 14028
[8] = tested on: Pseudomonas aeruginosa PAO1

CC(C)C[C@H](NC(=O)[C@H](CCCCN)NC(=O)[C@@H]1CSSC[C@H](N)C(=O)N[C@@H](CCCCN)C(=O)N[C@@H](CCCCN)C(=O)N[C@@H](CC(C)C)C(=O)N[C@@H](CC(C)C)C(=O)N[C@@H](CCCCN)C(=O)N[C@@H](CC(C)C)C(=O)N[C@@H](CC(C)C)C(=O)N[C@@H](CCCCN)C(=O)N[C@@H](CCCCN)C(=O)N[C@@H](CC(C)C)C(=O)N1)C(=O)N[C@@H](C)C(=O)NCC(=O)O [CKKLLKLLKKLCKLAG]
MIC [1]: 5 µM (≈ 8.99 µg/mL)
MIC (Escherichia coli): 20 µM (≈ 36 µg/mL)
MIC [2]: > 40 µM

CSCC[C@H](NC(=O)[C@H](CCCN=C(N)N)NC(=O)[C@H](Cc1c[nH]c2ccccc12)NC(=O)[C@H](CCC(N)=O)NC(=O)[C@H](Cc1c[nH]c2ccccc12)NC(=O)[C@H](CC(C)C)NC(=O)[C@H](CC(C)C)NC(=O)[C@H](C)NC(=O)[C@H](CCCCN)NC(=O)[C@@H](N)Cc1ccccc1)C(=O)O [FKALLWQWRM]
MIC [3]: 145 µM (≈ 200 µg/mL)
MIC [1]: 145 µM (≈ 200 µg/mL)

CSCC[C@H](NC(=O)[C@H](CCCN=C(N)N)NC(=O)[C@H](Cc1c[nH]c2ccccc12)NC(=O)[C@H](CCC(N)=O)NC(=O)[C@H](Cc1c[nH]c2ccccc12)NC(=O)[C@H](CC(C)C)NC(=O)[C@H](CCCN=C(N)N)NC(=O)[C@H](C)NC(=O)[C@H](CCCCN)NC(=O)[C@@H](N)Cc1ccccc1)C(=O)O [FKARLWQWRM]
MIC [3]: 141 µM (≈ 200 µg/mL)
MIC [1]: 70.4 µM (≈ 100 µg/mL)

CC[C@H](C)[C@H](NC(=O)CN)C(=O)NCC(=O)N[C@@H](CCCCN)C(=O)N[C@@H](Cc1ccccc1)C(=O)N[C@@H](CC(C)C)C(=O)N[C@@H](Cc1cnc[nH]1)C(=O)N[C@@H](CCCCN)C(=O)N[C@H](C(=O)NCC(=O)N[C@@H](CO)C(=O)N[C@@H](Cc1ccccc1)C(=O)N[C@H](C(=O)N[C@@H](CCCCN)C(=O)N[C@@H](CO)C(=O)N[C@@H](Cc1c[nH]c2ccccc12)C(=O)N[C@@H](CCCCN)C(=O)NCC(=O)N[C@@H](CCC(=O)O)C(=O)N[C@H](C(=O)N[C@@H](CCSC)C(=O)N[C@@H](CC(N)=O)C(=O)N[C@@H](CO)C(N)=O)[C@@H](C)CC)[C@@H](C)CC)C(C)C [GIGKFLHKVGSFIKSWKGEIMNS]
MIC [1]: 5 µM (≈ 12.8 µg/mL)
MIC [4]: 51.3 µM (≈ 131 µg/mL)
MIC [2]: 73 µM (≈ 187 µg/mL)

CC[C@H](C)[C@H](NC(=O)CN)C(=O)N[C@@H](CCCCN)C(=O)N[C@@H](CCCCN)C(=O)N[C@@H](Cc1c[nH]c2ccccc12)C(=O)N[C@@H](CC(C)C)C(=O)N[C@@H](Cc1cnc[nH]1)C(=O)N[C@@H](CO)C(=O)N[C@@H](C)C(=O)N[C@@H](CCCCN)C(=O)N[C@@H](CCCCN)C(=O)N1CCC[C@H]1C(=O)N1CCC[C@H]1C(=O)N[C@@H](CCCCN)C(=O)N[C@@H](CCCCN)C(=O)N[C@@H](Cc1ccccc1)C(=O)N[C@H](C(=O)N[C@@H](CCCCN)C(=O)N[C@@H](CCCCN)C(=O)N[C@H](C(=O)N[C@@H](CCSC)C(=O)N[C@@H](CC(N)=O)C(=O)N[C@@H](CO)C(N)=O)[C@@H](C)CC)C(C)C [GIKKWLHSAKKPPKKFVKKIMNS]
MIC [1]: > 80 µM
MIC [5]: 10 µM (≈ 26.9 µg/mL)

CC[C@H](C)[C@H](N)C(=O)N[C@@H](CC(=O)O)C(=O)N[C@@H](Cc1c[nH]c2ccccc12)C(=O)N[C@@H](CCCCN)C(=O)N[C@@H](CCCCN)C(=O)N[C@H](C(=O)N[C@@H](Cc1ccccc1)C(=O)N[C@@H](CCC(=O)O)C(=O)N[C@@H](CCCCN)C(=O)N[C@H](C(=O)N[C@@H](CCCCN)C(=O)N[C@@H](CC(N)=O)C(=O)N[C@@H](CC(C)C)C(=O)N[C@H](C(N)=O)C(C)C)C(C)C)[C@@H](C)CC [IDWKKIFEKVKNLV]
MIC (Bacillus subtilis): 8.5 µM (≈ 15 µg/mL)
MIC (Escherichia coli): 13 µM (≈ 22.9 µg/mL)

CC[C@H](C)[C@H](N)C(=O)N[C@H](C(=O)N[C@@H](CO)C(=O)N[C@H](C(=O)N[C@H](C(=O)NCC(=O)N[C@@H](CCCCN)C(=O)N[C@@H](CC(C)C)C(=O)N1CCC[C@H]1C(=O)N[C@@H](CCCCN)C(=O)N[C@@H](Cc1c[nH]c2ccccc12)C(=O)N[C@H](C(=O)N[C@H](C(=O)N[C@@H](CCCCN)C(=O)N[C@H](C(=O)N[C@H](C(=O)N[C@@H](CC(N)=O)C(=O)N[C@@H](CCCCN)C(=O)N[C@@H](Cc1ccccc1)C(=O)N[C@H](C(=O)N[C@@H](CCCCN)C(=O)N[C@@H](CCCCN)C(=O)O)[C@@H](C)O)C(C)C)[C@@H](C)O)[C@@H](C)CC)[C@@H](C)CC)[C@@H](C)CC)[C@@H](C)O)[C@@H](C)CC [IISTIGKLPKWIIKTVNKFTKK]
MIC (Escherichia coli): 2.7 µM (≈ 6.9 µg/mL)
MIC (Staphylococcus aureus): 22 µM (≈ 56.3 µg/mL)

CC(C)C[C@H](NC(=O)[C@H](C)NC(=O)[C@@H](N)CCCCN)C(=O)N[C@@H](C)C(=O)N[C@@H](C)C(=O)N[C@@H](CC(C)C)C(=O)N[C@@H](CC(C)C)C(=O)N[C@@H](CCCCN)C(=O)N[C@@H](CCCCN)C(=O)N[C@@H](Cc1c[nH]c2ccccc12)C(=O)N[C@@H](C)C(=O)N[C@@H](CCCCN)C(=O)N[C@@H](CC(C)C)C(=O)N[C@@H](CC(C)C)C(=O)N[C@@H](C)C(=O)N[C@@H](C)C(=O)N[C@@H](CC(C)C)C(=O)N[C@@H](CCCCN)C(N)=O [KALAALLKKWAKLLAALK]
MIC (Escherichia coli): 4.1 µM (≈ 8 µg/mL)
MIC (Pseudomonas aeruginosa): 5.8 µM (≈ 11.3 µg/mL)
MIC (Staphylococcus aureus): 3 µM (≈ 5.85 µg/mL)

CC(C)C[C@H](NC(=O)[C@H](C)NC(=O)[C@H](CCCCN)NC(=O)[C@H](CC(C)C)NC(=O)[C@H](CC(C)C)NC(=O)[C@H](Cc1c[nH]c2ccccc12)NC(=O)[C@H](CCCCN)NC(=O)[C@H](CC(C)C)NC(=O)[C@H](C)NC(=O)[C@H](C)NC(=O)[C@H](CCCCN)NC(=O)[C@H](C)NC(=O)[C@H](CC(C)C)NC(=O)[C@H](CC(C)C)NC(=O)[C@@H](N)CCCCN)C(=O)N[C@@H](CCCCN)C(=O)N[C@@H](C)C(=O)N[C@@H](C)C(N)=O [KLLAKAALKWLLKALKAA]
MIC (Escherichia coli): 6.2 µM (≈ 12.1 µg/mL)
MIC (Pseudomonas aeruginosa): 12.4 µM (≈ 24.2 µg/mL)
MIC (Staphylococcus aureus): 1.6 µM (≈ 3.12 µg/mL)

CC[C@H](C)[C@H](NC(=O)[C@H](CCCN=C(N)N)NC(=O)[C@H](C)NC(=O)[C@@H](NC(=O)[C@@H](NC(=O)[C@H](CCCN=C(N)N)NC(=O)[C@@H](N)CCCCN)[C@@H](C)CC)C(C)C)C(=O)N[C@@H](CCCCN)C(=O)N[C@@H](CC(=O)O)C(=O)N[C@@H](Cc1ccccc1)C(=O)N[C@@H](CC(C)C)C(=O)N[C@@H](CCCN=C(N)N)C(=O)O [KRIVARIKDFLR]
MIC [6]: 20 µM (≈ 30.3 µg/mL)
MIC [1]: 5 µM (≈ 7.57 µg/mL)
MIC [4]: 5 µM (≈ 7.57 µg/mL)
MIC [2]: 20 µM (≈ 30.3 µg/mL)

CC[C@H](C)[C@H](NC(=O)[C@H](Cc1ccccc1)NC(=O)[C@H](CO)NC(=O)[C@H](CCCCN)NC(=O)[C@H](Cc1c[nH]c2ccccc12)NC(=O)[C@@H](N)CCCCN)C(=O)N[C@@H](CCCCN)C(=O)N[C@@H](CCCCN)C(=O)N[C@@H](CC(C)C)C(=O)N[C@@H](CC(C)C)C(=O)N[C@@H](CO)C(=O)N[C@@H](CCCCN)C(=O)N[C@@H](Cc1ccccc1)C(=O)N[C@@H](CC(C)C)C(=O)N[C@@H](Cc1cnc[nH]1)C(=O)N[C@@H](CO)C(=O)N[C@@H](C)C(=O)N[C@@H](CCCCN)C(=O)N[C@@H](CCCCN)C(=O)N[C@@H](Cc1ccccc1)C(N)=O [KWKSFIKKLLSKFLHSAKKF]
MIC (Pseudomonas aeruginosa): 5.07 µM (≈ 12.5 µg/mL)

CC[C@H](C)[C@H](NC(=O)[C@H](Cc1ccccc1)NC(=O)[C@H](CO)NC(=O)[C@H](CCCCN)NC(=O)[C@H](Cc1c[nH]c2ccccc12)NC(=O)[C@@H](N)CCCCN)C(=O)N[C@@H](CCCCN)C(=O)N[C@@H](CCCCN)C(=O)N[C@@H](CC(C)C)C(=O)N[C@H](C(=O)N[C@@H](CO)C(=O)N[C@@H](CCCCN)C(=O)N[C@@H](Cc1ccccc1)C(=O)N[C@@H](CC(C)C)C(=O)N[C@@H](Cc1cnc[nH]1)C(=O)N[C@@H](CC(C)C)C(=O)N[C@@H](C)C(=O)N[C@@H](CCCCN)C(=O)N[C@@H](CCCCN)C(=O)N[C@@H](Cc1ccccc1)C(N)=O)[C@@H](C)O [KWKSFIKKLTSKFLHLAKKF]
MIC (Pseudomonas aeruginosa): 5.04 µM (≈ 12.5 µg/mL)

CC[C@H](C)[C@H](NC(=O)[C@H](CCCN=C(N)N)NC(=O)[C@H](C)NC(=O)[C@H](CC(N)=O)NC(=O)[C@H](CCCCN)NC(=O)[C@@H](N)CC(C)C)C(=O)N[C@H](C(=O)NCC(=O)N[C@@H](CCC(=O)O)C(=O)N[C@@H](CC(C)C)C(=O)N[C@H](C(=O)NCC(=O)N[C@@H](Cc1ccccc1)C(=O)N[C@@H](CCCN=C(N)N)C(=O)N1CCC[C@H]1C(=O)N[C@H](C(=O)N[C@@H](CCCN=C(N)N)C(=O)N1CCC[C@H]1C(=O)N[C@@H](CCC(N)=O)C(=O)N[C@H](C(=O)N[C@@H](CCCN=C(N)N)C(=O)N[C@@H](CC(C)C)C(=O)N[C@@H](CCC(=O)O)C(=O)O)C(C)C)C(C)C)[C@@H](C)O)C(C)C [LKNARIVGELTGFRPVRPQVRLE]
MIC [3]: 12.5 µM (≈ 33.1 µg/mL)
MIC [1]: 12.5 µM (≈ 33.1 µg/mL)
MIC [7]: 25 µM (≈ 66.2 µg/mL)

CC(C)C[C@H](NC(=O)[C@H](CCCN=C(N)N)NC(=O)[C@@H](N)CCCN=C(N)N)C(=O)N[C@@H](CCCN=C(N)N)C(=O)N1CCC[C@H]1C(=O)N[C@@H](CCCN=C(N)N)C(=O)N[C@@H](CCCN=C(N)N)C(=O)N1CCC[C@H]1C(=O)N[C@@H](CCCN=C(N)N)C(=O)N[C@@H](CC(C)C)C(=O)N1CCC[C@H]1C(=O)N[C@@H](CCCN=C(N)N)C(=O)N1CCC[C@H]1C(=O)N[C@@H](CCCN=C(N)N)C(=O)N1CCC[C@H]1C(=O)N[C@@H](CCCN=C(N)N)C(=O)O [RRLRPRRPRLPRPRPR]
MIC [3]: > 32 µM
MIC [8]: 16 µM and 32 µM
MIC [2]: > 32 µM

NC(=O)[C@H](Cc1ccccc1)NC(=O)[C@H](Cc1ccccc1)NC(=O)[C@H](Cc1ccccc1)NC(=O)[C@@H]1CCCN1C(=O)[C@H](CCCN=C(N)N)NC(=O)[C@@H]1CCCN1C(=O)[C@H](CCCN=C(N)N)NC(=O)[C@@H]1CCCN1C(=O)[C@H](CCCN=C(N)N)NC(=O)[C@@H]1CCCN1C(=O)[C@H](CCCN=C(N)N)NC(=O)[C@@H](N)CCCN=C(N)N [RRPRPRPRPFFF]
MIC [1]: 80 µM (≈ 130 µg/mL)
MIC [4]: > 160 µM
MIC [2]: 40 µM (≈ 65.1 µg/mL)
